Experimental data: patent US20050020576A1, “Kappa agonist compounds and pharmaceutical formulations thereof” (priority 1996, published 2005)
Where “and” joins values, the source holds several entries; their conditions need not be identical. Equal values may be shown once. Where a name gives a salt, the structure may show the parent alone.

Columns and labels:
[1] = molecular target: T1, cloned human kappa receptor (Homo sapiens, UniProt P41145); experiment: [3H]U69593 (agonist) binding to the cloned human kappa receptor
[2] = molecular target: T1, cloned human kappa receptor; experiment: biochemical; format: binding; conditions: for inhibition at 1 µM: read-out: 3H-Diprenorphin, % @ 1 uM
[3] = test system: formalin-induced flinching; experiment: animal or person; format: in vivo, male Sprague-Dawley rats; conditions: for inhibition in vivo at 0.3 µM: Rattus norvegicus, read-out: Formalin (% A @ 300 nM) i. paw
[4] = Table IA, read-out: Ki(nM) (3H)-Diprenorphin

T1 sequence (P41145 whole entry): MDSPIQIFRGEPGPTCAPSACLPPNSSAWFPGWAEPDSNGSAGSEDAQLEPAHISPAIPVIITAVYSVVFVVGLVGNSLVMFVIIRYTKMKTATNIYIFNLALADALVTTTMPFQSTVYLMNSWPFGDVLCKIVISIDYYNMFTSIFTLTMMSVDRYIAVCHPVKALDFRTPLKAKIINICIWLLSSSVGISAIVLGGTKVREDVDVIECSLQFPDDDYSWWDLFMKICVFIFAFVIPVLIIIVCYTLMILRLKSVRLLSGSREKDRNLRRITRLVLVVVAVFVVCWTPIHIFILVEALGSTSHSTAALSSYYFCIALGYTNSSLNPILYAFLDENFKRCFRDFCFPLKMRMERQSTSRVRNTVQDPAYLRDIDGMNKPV

COc1ccc2c(c1)[C@H](N(C)C(=O)C(c1ccccc1)c1ccccc1)[C@@H](N1CCCC1)CC2 (racemic) [II-2]
Ki ([1]; Ki (nM) k (mg) [3H]U69,593): 20 nM
Ki ([2]; Ki (nM) k [3H] Diprenorphin): 142 nM

CN(C(=O)Cc1ccc(Cl)c(Cl)c1)[C@H](CN1CCCC1)c1cccc(NC(=O)/C=C\C(=O)O)c1 [Example 3h]
melting point: 174 to 176 °C
Late Phase Formalin, % @ 10 ([3]; rat, in vivo): 59% @ 10
Ki ([2]; Ki (nM) [3H]-Diprenorphin κ): 1.8 nM

COc1cc2c(cc1S(=O)(=O)N(C)Cc1ccccc1)[C@H](N(C)C(=O)Cc1ccc(Cl)c(Cl)c1)[C@@H](N1CCCC1)CC2 (racemic) [II-15]
Ki ([1]; Ki (nM) k (mg) [3H]U69,593): 8 nM
Ki ([2]; Ki (nM) k [3H] Diprenorphin): 48 nM

CC(=O)N1CCN(C(=O)Cc2cccc([N+](=O)[O-])c2)C(CN2CCCC2)C1 (racemic) [(R,S-10d), (R,S)-4-Acetyl-1-[(3-nitrophenyl)acetyl]-3-[(1-pyrrolidinyl)-methyl]piperazine-carboxylate hydrochloride]
Ki ([1]; Ki, nM 3H-U-69,593): 0.72 nM
inhibition at 1 µM [2]: 94%

CS(=O)(=O)N1CCN(C(=O)Cc2ccccc2[N+](=O)[O-])[C@H](CN2CCCC2)C1.Cl (racemic) [(R,S-8c), (R,S)-4-Methanesulfonyl-1-[(2-nitrophenyl)acetyl]-2-[(1-pyrrolidinyl)-methyl]piperazine hydrochloride]
3H-U-69,593, % @ 1 uM [1]: 51% @ 1 uM
3H-Diprenorphin, % @ 1 uM [2]: 15% @ 1 uM

CCOP(=O)(Nc1ccc2c(c1)[C@H](N(C)C(=O)Cc1ccc(Cl)c(Cl)c1)[C@@H](N1CCCC1)CC2)OCC (racemic) [II-14]
Ki ([1]; Ki (nM) k (mg) [3H]U69,593): 0.6 nM
Ki ([2]; Ki (nM) k [3H] Diprenorphin): 2.4 nM

CN(C(=O)Cc1ccc(C(F)(F)F)cc1)[C@H](CN1CCCC1)c1cccc(NS(C)(=O)=O)c1.Cl [Example 3d, 2-(4-Trifluoromethylphenyl)-N-methyl-N-{[1S]-1-[3-[(methylsulfonyl)amino]phenyl]-2-[1-pyrrolidinyl]ethyl}acetamide hydrochloride]
melting point: 173 to 175 °C
Late Phase Formalin A50 ([3]; rat, in vivo): 16.0 mg/kg
Ki ([2]; Ki (nM) [3H]-Diprenorphin κ): 0.28 nM

CN(C(=O)Cc1ccc(C(F)(F)F)cc1N(S(C)(=O)=O)S(C)(=O)=O)C1CCCCC1N1CCCC1.Cl (racemic) [Example 5j, (±)-trans-2-Bismethanesulfonamido-4-trifluoromethyl-N-methyl-N-[2-(1-pyrrolidinyl)cyclohexyl]-phenylacetamide Hydrochloride]
% @ 1 μM, U-69593 [1]: 48% @1 μM
% @ 1 μM, diprenorphine [2]: 13% @ 1 μM

CS(=O)(=O)N1CCN(C(=O)Cc2c[nH]c3ccccc23)C(CN2CCCC2)C1 (racemic) [(R,S-8e), (R,S)-4-Methanesulfonyl-1-[(3-indolylacetyl-2-[(1-pyrrolidinyl)-methyl]piperazine hydrochloride]
Ki ([1]; Ki, nM 3H-U-69,593): 5.3 nM and 3.2 nM
inhibition at 1 µM [2]: 74%

CN(C(=O)Cc1ccc(Cl)c(Cl)c1)[C@H]1c2cc(N(CC(=O)OC(C)(C)C)CC(=O)OC(C)(C)C)ccc2CC[C@@H]1N1CCCC1 (racemic) [II-11]
Ki ([1]; Ki (nM) k (mg) [3H]U69,593): 2.8 nM
Ki ([2]; Ki (nM) k [3H] Diprenorphin): 7.4 nM

CN(C(=O)Cc1ccc(C(F)(F)F)cc1NC(=O)/C=C\C(=O)O)[C@H](CN1CCCC1)c1ccccc1 [Example 3z]
melting point: 153 to 155 °C (dec.)
Late Phase Formalin, % @ 300 ([3]; rat, in vivo): 98% @ 300
Ki ([2]; Ki (nM) [3H]-Diprenorphin κ): 1.7 nM

CN(C(=O)Cc1ccc(S(C)(=O)=O)cc1)[C@H](CN1CCCC1)c1cccc(NS(C)(=O)=O)c1.CS(=O)(=O)O [Example 3e, 2-(4-Methanesulfonylphenyl)-N-methyl-N-{[1S]-1-[3-[(methylsulfonyl)amino]phenyl]-2-[1-pyrrolidinyl]ethyl}acetamide methanesulfonate]
melting point: 140 to 142 °C
Late Phase Formalin, % @ 300 ([3]; rat, in vivo): 71% @ 300
Ki ([2]; Ki (nM) [3H]-Diprenorphin κ): 3.2 nM

CN(C(=O)Cc1ccc(Cl)c(Cl)c1)[C@H](CN1CCCC1)c1cccc(NS(C)(=O)=O)c1.Cl [Example 3f, 2-(3,4-Dichlorophenyl)-N-methyl-N-{[1S]-1-[3-[(methylsulfonyl)amino]phenyl]-2-[1-pyrrolidinyl]ethyl}acetamide hydrochloride]
melting point: 240 to 242 °C
Late Phase Formalin A50 ([3]; rat, in vivo): 8.9 mg/kg
Ki ([2]; Ki (nM) [3H]-Diprenorphin κ): 0.18 nM

CN(C(=O)Cc1ccccc1C(=O)O)[C@H](CN1CCCC1)c1ccccc1.Cl [Example 3kk, 2-(2-Carboxyphenyl)-N-methyl-N-{[1S]-1-phenyl-2-(1-pyrrolidinyl)ethyl}acetamide hydrochloride]
melting point: 230 to 232 °C (dec.)
Late Phase Formalin, % @ 300 ([3]; rat, in vivo): 23% @ 300
[3H]-Diprenorphin κ, % @ 1 μM [2]: 53% @ 1 μM

CNS(=O)(=O)c1cc(CC(=O)N(C)[C@H](CN2CCCC2)c2ccccc2)ccc1F.Cl [Example 3o, 2-[3-(N-Methylsulfamoyl)-4-fluorophenyl]-N-methyl-N-{[1S]-1-phenyl-2-[1-pyrrolidinyl]ethyl}acetamide hydrochloride]
melting point: 278 to 280 °C
Late Phase Formalin, % @ 300 ([3]; rat, in vivo): 59% @ 300
Ki ([2]; Ki (nM) [3H]-Diprenorphin κ): 30.5 nM

CN(C(=O)Cc1ccc(Cl)c(S(N)(=O)=O)c1)[C@H](CN1CCCC1)c1ccccc1.CS(=O)(=O)O [Example 3m, 2-(3-Sulfamoyl-4-chlorophenyl)-N-methyl-N-{[1S]-1-phenyl-2-[1-pyrrolidinyl]ethyl}acetamide methanesulfonate]
melting point: 220 to 222 °C
Late Phase Formalin, % @ 300 ([3]; rat, in vivo): 65% @ 300
Ki ([2]; Ki (nM) [3H]-Diprenorphin κ): 5.1 nM

CN(C(=O)Cc1ccc(Cl)c(Cl)c1)[C@H](CN1CCCC1)c1cccc(NS(N)(=O)=O)c1 (racemic) [Example 3c, 2-(3,4-Dichlorophenyl)-N-methyl-N-[(1R,S)-1-(3-sulfamidophenyl)-2-(1-pyrrolidinyl)ethyl]acetamide hydrochloride]
Late Phase Formalin A50 ([3]; rat, in vivo): 0.27 mg/kg
Ki ([2]; Ki (nM) [3H]-Diprenorphin κ): 0.12 nM

COc1cc(CC(=O)N(C)[C@H](CN2CCCC2)c2ccccc2)c(S(=O)(=O)N2CCCC2)c(OC)c1OC [Example 143, 2-[2-(N-Pyrrolidinesulfamoyl)-3,4,5-trimethoxyphenyl]-N-methyl-N-[(1S)-1-phenyl-2-[(1-pyrrolidinyl)ethyl]]acetamide]
Late Phase Formalin (i. paw), % @ 300 ([3]; rat, in vivo): 98% @ 300
Ki ([2]; read-out: Ki(nM) [3H]-Diprenorphin κ): 2.1 nM

COC(=O)N1CCN(C(=O)Cc2ccc(Cl)c(Cl)c2)[C@@H](CN2CCC[C@H]2CO)C1 [Example 1ii, Methyl-4-[(3,4-dichlorophenyl)acetyl]-3-(S)-[(2-(S)-pyrrolidinemethanol)methyl]-1-piperazinecarboxlate hydrochloride]
inhibition in vivo at 0.3 µM [3]: 60%
Ki ([2]; Ki, nM 3H-Diprenorphin): 21.5 nM

CN(C(=O)Cc1ccc(OCc2ccccc2)c(NS(C)(=O)=O)c1)[C@H](CN1CCCC1)c1ccccc1 [Example 123, 2-(3-N-Methylsulfonamido-3-amino-4-benzyloxyphenyl)-N-methyl-N-[(1S)-1-phenyl-2-(1-pyrrolidinyl)ethyl]acetamide]
Late Phase Formalin (i. paw), % @ 300 ([3]; rat, in vivo): 87% @ 300
Ki ([2]; Ki (nM) [3H]-Diprenorphin κ): 23.6 nM

COC(=O)N1CCN(C(=O)Cc2ccc(S(C)(=O)=O)cc2)C(CN2CCC[C@H]2CO)C1 (mixture of isomers) [Example 1o, Methyl-4-[(4-methylsulphonylphenyl)acetyl]-3-(R,S)-[(2-(S)-pyrrolidinemethanol)methyl]-1-piperazinecarboxylate hydrochloride]
inhibition in vivo at 0.3 µM [3]: 41%
Ki [2, 4]: 133 nM

N-[1R,2R-trans-4-Trifluoromethyl-N-methyl-N-[2-(1-pyrrolidinyl)cyclohexyl]-phenylacetamido]glycine Hydrochloride [Example 4k]
Formalin (% A @ 300 μg i-paw) ([3]; rat, in vivo): 80% @ 300
[3H]-Diprenorphin, % @ 1 μM [2]: 28% @ 1 μM

CC(C)COC(=O)CNC(=O)CCC(=O)Nc1cccc([C@@H](CN2CCCC2)N(C)C(=O)Cc2ccc(Cl)c(Cl)c2)c1 [Example 3i, 2-(3,4-Dichlorophenyl)-N-methyl-N-{(1S)-1-[3-(3-(((iso-butoxycarbonyl)-methyl)aminocarbonyl)propionamido)phenyl]-2-(1-pyrrolidinyl)ethyl}acetamide hydrochloride]
Late Phase Formalin, % @ 300 ([3]; rat, in vivo): 23% @ 300
Ki ([2]; Ki (nM) [3H]-Diprenorphin κ): 0.14 nM

CNS(=O)(=O)c1ccccc1CC(=O)N1CCN(C(=O)OC)CC1CN1CCCC1 (racemic) [Example 1e, Methyl-4-[(2-[N-methylamino)sulfamyl]phenyl)acetyl]-3-(R,S)-[(1-pyrrolidinyl)methyl]-1-piperazinecarboxylate hydrochloride]
inhibition in vivo at 0.3 µM [3]: 55%
Ki ([2]; Ki, nM 3H-Diprenorphin): 14 nM

CNS(=O)(=O)c1cccc(CC(=O)N(C)[C@H](CN2CCCC2)c2ccccc2)c1OC [Example 3u]
Late Phase Formalin, % @ 300 ([3]; rat, in vivo): 48% @ 300
Ki ([2]; Ki (nM) [3H]-Diprenorphin κ): 1 nM

CS(=O)(=O)N1CCN(C(=O)Cc2ccc(C(F)(F)F)cc2)C(CN2CC[C@H](O)C2)C1 (stereo partly drawn) [Example 1nn, 4-Methylsulphonyl-1-[(4-α,α,α-triflouromethylphenyl)acetyl]-2-(R,S)-[(3-(S)-hydroxy-1-pyrrolidinyl)methyl]piperazine hydrochloride]
Formalin A50 mg/kg s.c. ([3]; rat, in vivo, sc): 7.1 mg/kg
Ki ([2]; Ki, nM 3H-Diprenorphin): 2.33 nM

CC(=O)N1CCN(C(=O)Cc2ccc(Cl)c(Cl)c2)C(CN2CCC[C@H]2CO)C1 (mixture of isomers) [Example 1z, 4-Acetyl-1-[(3,4-dichlorophenyl)acetyl]-2-(R,S)-[(2-(S)-pyrrolidinemethanol)methyl]piperazine hydrochloride]
inhibition in vivo at 0.3 µM [3]: 71%
Ki [2, 4]: 102 nM

CCOP(=O)(Nc1cccc([C@@H](CN2CCCC2)N(C)C(=O)Cc2ccc(Cl)c(Cl)c2)c1)OCC [Example 3g, 2-(3,4-Dichlorophenyl)-N-methyl-N-[(1S)-1-[3-(diethyl Phosphoryl)amino]phenyl)-2-(1-pyrrolidinyl)ethyl]acetamide hydrochloride]
Late Phase Formalin A50 ([3]; rat, in vivo): 4.4 mg/kg
Ki ([2]; Ki (nM) [3H]-Diprenorphin κ): 0.12 nM

C=CCN1CCN(C(=O)Cc2ccc(Cl)c(Cl)c2)[C@H](CN2CCCC2)C1 [Example 1ff, 4-Allyl-1-[(3,4-dichlorophenyl)acetyl]-2-(R)-[(1-pyrrolidinyl)methyl]piperazine hydrochloride]
inhibition in vivo at 0.3 µM [3]: 98%
Ki ([2]; Ki, nM 3H-Diprenorphin): 0.58 nM
